Tested on: P12-Ichikawa
Experiment: cell viability relative to DMSO control; higher = less cytotoxic
Conditions: 48 h
Summary of the method: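 Viability values are per-plate percentages of DMSO wells, with background from cell-free wells. Library compounds in DMSO were pin-dosed, in an 11-point threefold series from 47 μM to 0.79 nM, onto NOMO1 or SEM (500 cells/well) or P12-Ichikawa (1000 cells/well) leukemia cells in 1536-well plates (5 μl). Those cells had been adapted for at least four passages in each medium, and CellTiter-Glo One luminescence was read after 48 h at 37°C.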

[1] = HPLM + 10% dialyzed FBS, 0.000781 µM
[2] = HPLM + 10% dialyzed FBS, 0.00234 µM
[3] = HPLM + 10% dialyzed FBS, 0.00702 µM
[4] = HPLM + 10% dialyzed FBS, 0.0211 µM
[5] = HPLM + 10% dialyzed FBS, 0.0632 µM
[6] = HPLM + 10% dialyzed FBS, 0.19 µM
[7] = HPLM + 10% dialyzed FBS, 0.569 µM
[8] = HPLM + 10% dialyzed FBS, 1.71 µM
[9] = HPLM + 10% dialyzed FBS, 5.12 µM
[10] = HPLM + 10% dialyzed FBS, 15.4 µM
[11] = HPLM + 10% dialyzed FBS, 46.1 µM
[12] = RPMI 5 mM glucose + 10% dialyzed FBS, 0.000781 µM
[13] = RPMI 5 mM glucose + 10% dialyzed FBS, 0.00234 µM
[14] = RPMI 5 mM glucose + 10% dialyzed FBS, 0.00702 µM
[15] = RPMI 5 mM glucose + 10% dialyzed FBS, 0.0211 µM
[16] = RPMI 5 mM glucose + 10% dialyzed FBS, 0.0632 µM
[17] = RPMI 5 mM glucose + 10% dialyzed FBS, 0.19 µM
[18] = RPMI 5 mM glucose + 10% dialyzed FBS, 0.569 µM
[19] = RPMI 5 mM glucose + 10% dialyzed FBS, 1.71 µM
[20] = RPMI 5 mM glucose + 10% dialyzed FBS, 5.12 µM
[21] = RPMI 5 mM glucose + 10% dialyzed FBS, 15.4 µM
[22] = RPMI 5 mM glucose + 10% dialyzed FBS, 46.1 µM
[23] = RPMI 5 mM glucose + 10% FBS, 0.000781 µM
[24] = RPMI 5 mM glucose + 10% FBS, 0.00234 µM
[25] = RPMI 5 mM glucose + 10% FBS, 0.00702 µM
[26] = RPMI 5 mM glucose + 10% FBS, 0.0211 µM
[27] = RPMI 5 mM glucose + 10% FBS, 0.0632 µM
[28] = RPMI 5 mM glucose + 10% FBS, 0.19 µM
[29] = RPMI 5 mM glucose + 10% FBS, 0.569 µM
[30] = RPMI 5 mM glucose + 10% FBS, 1.71 µM
[31] = RPMI 5 mM glucose + 10% FBS, 5.12 µM
[32] = RPMI 5 mM glucose + 10% FBS, 15.4 µM
[33] = RPMI 5 mM glucose + 10% FBS, 46.1 µM

| Compound | cell viability [1] [%] | cell viability [2] [%] | cell viability [3] [%] | cell viability [4] [%] | cell viability [5] [%] | cell viability [6] [%] | cell viability [7] [%] | cell viability [8] [%] | cell viability [9] [%] | cell viability [10] [%] | cell viability [11] [%] | cell viability [12] [%] | cell viability [13] [%] | cell viability [14] [%] | cell viability [15] [%] | cell viability [16] [%] | cell viability [17] [%] | cell viability [18] [%] | cell viability [19] [%] | cell viability [20] [%] | cell viability [21] [%] | cell viability [22] [%] | cell viability [23] [%] | cell viability [24] [%] | cell viability [25] [%] | cell viability [26] [%] | cell viability [27] [%] | cell viability [28] [%] | cell viability [29] [%] | cell viability [30] [%] | cell viability [31] [%] | cell viability [32] [%] | cell viability [33] [%] |
| --- | --- | --- | --- | --- | --- | --- | --- | --- | --- | --- | --- | --- | --- | --- | --- | --- | --- | --- | --- | --- | --- | --- | --- | --- | --- | --- | --- | --- | --- | --- | --- | --- | --- |
| O=C1NC(O)CCN1[C@@H]1O[C@H](CO)[C@@H](O)[C@H]1O (some centres undefined) | 118 | 127 | 120 | 116 | 128 | 129 | 122 | 106 | 102 | 110 | 112 | 118 | 119 | 131 | 124 | 116 | 120 | 120 | 121 | 110 | 115 | 107 |  |  |  |  |  |  |  |  |  |  |  |
| COC(=O)[C@@H](N)CCCNC(=N)N[N+](=O)[O-] | 94.6 | 102 | 104 | 98.4 | 111 | 98.1 | 110 | 107 | 107 | 103 | 115 | 85.9 | 93 | 90.7 | 97.5 | 99.2 | 91.5 | 99.7 | 98.6 | 95.9 | 92 | 94 | 85.4 | 96.7 | 99 | 94 | 105 | 98.5 | 114 | 103 | 105 | 99.3 | 105 |
| CCNc1cc(NC2CCC(O)CC2)nc(Nc2ccc3c(ccn3Cc3ccccc3)c2)n1 (centres undefined) | 112 | 117 | 117 | 126 | 127 | 128 | 126 | 128 | 124 | 120 | 109 |  |  |  |  |  |  |  |  |  |  |  |  |  |  |  |  |  |  |  |  |  |  |
| NC(=O)c1cccc(N)c1 | 106 | 105 | 70.8 | 116 | 120 | 122 | 117 | 117 | 121 | 111 | 116 | 101 | 112 | 78.1 | 114 | 115 | 115 | 124 | 120 | 115 | 120 | 120 | 101 | 106 | 67.8 | 121 | 115 | 124 | 108 | 117 | 120 | 117 | 113 |
| N\C1=N\C2=C(N=C[N]2COC(CO)CO)C(=O)N1 | 107 | 108 | 109 | 113 | 115 | 115 | 119 | 120 | 119 | 116 | 5.18 | 101 | 98.3 | 108 | 118 | 106 | 116 | 113 | 109 | 112 | 109 | 4.18 | 104 | 102 | 112 | 119 | 121 | 110 | 124 | 124 | 117 | 107 | 3.39 |
| CCOC1=CC(=CC=C1C/2=N/[C@@](C)(C3=CC=C(Cl)C=C3)[C@](C)(N2C(=O)N4CCN(CC4)CC(=O)N5CCOCC5)C6=CC=C(Cl)C=C6)C(C)(C)C | 104 | 104 | 101 | 99.7 | 101 | 102 | 104 | 101 | 101 | 82.9 | 87.1 | 109 | 110 | 112 | 107 | 99.2 | 102 | 107 | 97.6 | 99.7 | 89.8 | 97.7 | 104 | 106 | 97.9 | 109 | 112 | 108 | 101 | 103 | 92.2 | 97.6 | 89.9 |
| COC[C@H]1OC(=O)C2=COC3=C2[C@@]1(C)\C4=C(\[C@@H]5CC[C@H](O)[C@@]5(C)C[C@H]4OC(C)=O)C3=O | 105 | 120 | 85.6 | 117 | 120 | 123 | 127 | 123 | 121 | 109 | 68.2 | 100 | 115 | 84.9 | 120 | 131 | 126 | 132 | 130 | 116 | 88.8 | 58.9 | 104 | 121 | 67.4 | 118 | 114 | 129 | 128 | 124 | 117 | 101 | 81.6 |
| CN(C)c1ccc(Nc2nc(N)n(C(=O)c3c(F)cccc3F)n2)cc1 | 106 | 115 | 125 | 79.5 | 122 | 127 | 121 | 117 | 114 | 29.1 | 88.2 | 114 | 115 | 120 | 72.4 | 125 | 125 | 118 | 126 | 120 | 41.2 | 68.3 | 122 | 116 | 115 | 70 | 132 | 126 | 130 | 137 | 114 | 28.8 | 60.2 |
| COc1cccc2c1C(=O)c1c(O)c3c(c(O)c1C2=O)C[C@@](O)(C(C)=O)C[C@@H]3O[C@H]1C[C@H](N)[C@H](O)[C@H](C)O1 | 107 | 112 | 115 | 109 | 114 | 101 | 6.62 | 7.98 | 8.25 | 9.65 | 8.17 | 102 | 107 | 107 | 106 | 98 | 70.8 | 8.12 | 7.49 | 7.97 | 7.6 | 8.42 | 94.8 | 112 | 113 | 104 | 103 | 73.2 | 7.42 | 7.61 | 7.8 | 7.04 | 9.59 |
| CC(C)C[C@H](NC(=O)[C@H](Cc1ccccc1)NC(=O)c1cnccn1)B(O)O | 96.4 | 92.9 | 106 | 106 | 4.77 | 2.92 | 2.65 | 2.46 | 1.35 | 0.316 | -0.93 | 88.6 | 105 | 99 | 102 | 4.76 | 2.71 | 2.62 | 1.7 | 1.34 | 0.782 | -0.254 | 93.4 | 103 | 107 | 101 | 4.71 | 2.56 | 2.17 | 1.91 | 1.36 | 0.651 | -0.626 |
| CC(C)(C)NC(=O)[C@H]1CC[C@H]2[C@@H]3CC[C@H]4NC(=O)\C=C/[C@]4(C)[C@H]3CC[C@]12C | 101 | 109 | 106 | 107 | 102 | 103 | 111 | 107 | 109 | 27.7 | 12.7 | 94.1 | 100 | 102 | 100 | 107 | 112 | 108 | 115 | 113 | 81.4 | 35.6 | 83.5 | 104 | 103 | 108 | 109 | 109 | 109 | 115 | 103 | 31.6 | 10.8 |
| O=C(CCc1ccc(O)cc1)c1c(O)cc(O)cc1O[C@@H]1O[C@H](CO)[C@@H](O)[C@H](O)[C@H]1O | 96.3 | 96.6 | 94.1 | 92.8 | 88 | 96.3 | 86.2 | 84 | 85.1 | 81.9 | 85.5 | 84.1 | 84.3 | 95 | 93.9 | 82.8 | 85.1 | 81.8 | 89.3 | 83.2 | 80.2 | 82.8 | 90.2 | 85.4 | 86.5 | 86.5 | 82.4 | 83.6 | 88.1 | 82.6 | 82.5 | 81.6 | 86.1 |
| Cc1c(C(=O)Nc2cccc(C(F)(F)F)c2)cc(-c2ccccc2)n1CCCN1CCOCC1 | 116 | 112 | 113 | 112 | 106 | 106 | 104 | 99.2 | 104 | 91.7 | 79.7 | 105 | 117 | 114 | 114 | 114 | 107 | 106 | 103 | 103 | 94 | 74.1 | 111 | 109 | 115 | 105 | 113 | 119 | 108 | 108 | 97.1 | 88 | 70.3 |
| CNCC(O)C(O)C(O)C(O)CO.O=C(O)c1ccc(-c2cc3cccnc3c(-c3ccc4nonc4c3)n2)cc1 | 105 | 112 | 115 | 106 | 119 | 116 | 120 | 119 | 112 | 117 | 99.4 | 104 | 114 | 111 | 104 | 115 | 114 | 119 | 120 | 113 | 104 | 89.4 | 113 | 107 | 122 | 107 | 123 | 127 | 122 | 116 | 121 | 109 | 102 |
| CC(=O)[C@H]1CC[C@H]2[C@@H]3CCC4=CC(=O)CC[C@]4(C)[C@H]3CC[C@]12C | 106 | 114 | 120 | 112 | 118 | 115 | 125 | 118 | 109 | 94.7 | 110 | 98.1 | 112 | 108 | 118 | 120 | 125 | 120 | 116 | 105 | 91.9 | 114 |  |  |  |  |  |  |  |  |  |  |  |
| CN(C)CCCNC(=O)c1ccc(-c2cc(O)c3ncccc3c2)cc1 | 102 | 102 | 106 | 107 | 106 | 111 | 93.9 | 104 | 101 | 95.2 | 82.6 | 92.3 | 97.9 | 96.8 | 97.5 | 103 | 95.1 | 98.5 | 90.6 | 83.4 | 100 | 71.1 | 95.7 | 97.4 | 101 | 104 | 111 | 89.6 | 93.3 | 95.5 | 92 | 99.8 | 63.6 |
